From patent US20250059172A1, “INDAZOLE COMPOUND AND PHARMACEUTICAL” (NIPPON SHINYAKU CO., LTD., priority 2021, published 2025)
Counter-ions that a name gives are not always drawn.

What was measured:
human A549 cells = assay: Inhibition test of PGE2 production using human A549 cells; format: cell-based; conditions: IL-1β stimulated A549 cells, 24 h, PGE2 by HTRF, read-out: A549 cell inhibition of PGE2 production IC50
Experimental: 100 μL of RPMI medium (Sigma) comprising 10% FBS and human A549 cells was seeded in a 96-well plate to […] cells per well, and incubated overnight. The medium was then removed and washed with phosphate-buffered saline, and added to a DMSO solution of the test compound or RPMI medium comprising 3% FBS with DMSO to a final concentration of 0.1% DMSO. After incubation for 60 minutes, IL-1P (5 ng/well, BioLegend) was added to the solution. After incubation at 37° C. for 24 h, PGE2 in the medium was quantified using the HTRF kit (Cisbio International) and PGF2a was also quantified using the EIA kit (Cayman chemical). Solutions without the test compound were used as positive controls, and solutions without the test compound and IL-1β were used as negative controls. 100% activity was defined as production of PGE2 and PGF2a in the positive control minus those in the negative control. IC50 values were then determined using standard methods.

human mPGES-1 = human mPGES-1 (Homo sapiens (Human), UniProt O14684); assay: mPGES-1 inhibitory activity test; format: biochemical; conditions: for inhibition at 0.01 µM: 10 nM test compound; for IC50: microsomes of CHO-K1 cells expressing human mPGES-1, PGH2 1 μM, PGE2 by HTRF, read-out: mPGES-1 inhibition (IC50 nM); for inhibition at 0.1 µM: 100 nM test compound
Chain of human mPGES-1 (O14684 whole entry): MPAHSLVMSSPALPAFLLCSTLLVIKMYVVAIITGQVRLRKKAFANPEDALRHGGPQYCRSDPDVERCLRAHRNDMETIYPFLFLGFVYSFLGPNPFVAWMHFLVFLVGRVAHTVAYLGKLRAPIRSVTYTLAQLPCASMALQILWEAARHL
Experimental: mPGES-1 microsomal specimens were prepared by transiently transfecting CHO-K1 cells (DS Pharma Biomedical Co. Ltd) with a plasmid encoding human mPGES-1 cDNA using FuGENE 6 Transfection Reagent (Promega). The prepared mPGES-1 microsome specimens were diluted in potassium phosphate buffer of pH 7.4 comprising 2.5 mM reduced glutathione (Sigma-Aldrich), DMSO solution of a test compound or DMSO was added to a final concentration of 1% of DMSO, and then incubated at 4° C. for 20 minutes. The enzymatic reaction was then initiated by adding a solution of PGH2 (Cayman chemical) substrate of a final concentration 1 μM and incubated at 4° C. for 60 seconds. The reaction was terminated by adding a solution of ferric chloride (STREM CHEMICALS) and citric acid (Wako Pure Chemical Industries) salt to a final concentration of 5 mg/mL and 250 mM, respectively. The formed PGE2 was quantified using the HTRF kit (Cisbio International). Solutions without the test compound were used as positive controls, and solutions without the test compound and microsomal specimens were used as negative controls. 100% activity was defined as production of PGE2 in the positive control minus that in the negative control. The percentage inhibition of production of PGE2 at final concentrations of 10 nM and 100 nM of the test compound was then calculated, or IC50 values were determined using standard methods.

Structure (SMILES)	IC50 (human A549 cells)	inhibition at 0.01 µM (human mPGES-1)	IC50 (human mPGES-1)	inhibition at 0.1 µM (human mPGES-1)
Cc1ccc(-n2ncc3c(NC(=O)c4cc(CNC(=O)C5(C(F)(F)F)CC5)ccc4Cl)cccc32)cc1Cl [Example 129, 2-Chloro-N-[1-(3-chloro-4-methylphenyl)-1H-indazol-4-yl]-5-[({[1-(trifluoromethyl)cyclopropyl]carbonyl}amino)methyl]benzamide]	1.2 nM	67%	–	–
CC(=O)N1CCC(n2ncc3c(NC(=O)c4cc(CNC(=O)C(C)(C)C)ccc4Cl)cccc32)CC1 [Example 106, N-[1-(1-acetylpiperidin-4-yl)-1H-indazol-4-yl]-2-chloro-5-{[(2,2-dimethylpropanoyl)amino]methyl}benzamide]	884 nM	–	175 nM	–
CC(C)(CO)C(=O)NCc1ccc(Cl)c(C(=O)Nc2cccc3c2cnn3-c2ccc(F)cc2)c1 [Example 156, 2-Chloro-N-[1-(4-fluorophenyl)-1H-indazol-4-yl]-5-([(3-hydroxy-2,2-dimethylpropanoyl)amino]methyl)benzamide]	7.1 nM	63%	–	86%
O=C(CC(F)(F)F)NCc1ccc(Cl)c(C(=O)Nc2cccc3c2cnn3-c2ccc(C(F)(F)F)cc2)c1 [Example 37, 2-Chloro-N-{1-[4-(trifluoromethyl)phenyl]-1H-indazol-4-yl}-5-{[(3,3,3-trifluoropropanoyl)amino]methyl}benzamide]	2.5 nM	–	8.9 nM	–
O=C(Nc1cccc2c1cnn2-c1ccc(C(F)(F)F)cc1)c1cc(CNC(=O)C2CCCO2)ccc1Cl (centres unmarked) [Example 33, N-[4-chloro-3-({1-[4-(trifluoromethyl)phenyl]-1H-indazol-4-yl}carbamoyl)benzyl]-tetrahydrofuran-2-carboxamide]	41.4 nM	–	18 nM	–
Cc1ccc(-n2ncc3c(NC(=O)c4cc(CNC(=O)C5(C(F)(F)F)CC5)ccc4Cl)cccc32)cc1C(F)(F)F [Example 256, 2-Chloro-N-{1-[4-methyl-3-(trifluoromethyl)phenyl]-1H-indazol-4-yl}-5-[({[1-(trifluoromethyl)cyclopropyl]carbonyl}amino)methyl]benzamide]	0.3 nM	88%	–	98%
CCOc1cccc(-n2ncc3c(NC(=O)c4cc(CNC(=O)C(C)(C)C)ccc4Cl)cccc32)c1 [Example 66, 2-Chloro-5-{[(2,2-dimethylpropanoyl)amino]methyl}-N-[1-(3-ethoxyphenyl)-1H-indazol-4-yl]benzamide]	4 nM	–	0.2 nM	–
CC(C)Oc1cccc(-n2ncc3c(NC(=O)c4cc(CNC(=O)C(C)(C)C)ccc4Cl)cccc32)c1 [Example 68, 2-Chloro-5-{[(2,2-dimethylpropanoyl)amino]methyl}-N-{1-[3-(propan-2-yloxy)phenyl]-1H-indazol-4-yl}benzamide]	2 nM	–	6.7 nM	–
O=C(Nc1cccc2c1cnn2-c1cccc(OC(F)(F)F)c1)c1cc(CNS(=O)(=O)C2CC2)ccc1Cl [Example 126, 2-Chloro-5-{[(cyclopropylsulfonyl)amino]methyl}-N-{1-[3-(trifluoromethoxy)phenyl]-1H-indazol-4-yl}benzamide]	9.8 nM	100%	–	–
CCn1ncc2c(NC(=O)c3cc(CNC(=O)C(C)(C)C)ccc3Cl)cccc21 [Example 113, 2-Chloro-5-{[(2,2-dimethylpropanoyl)amino]methyl}-N-(1-ethyl-1H-indazol-4-yl)benzamide]	20.2 nM	–	1.2 nM	–
COc1ccc(-n2ncc3c(NC(=O)c4cc(CNC(=O)C5CCCC5)ccc4Cl)cccc32)cc1C(F)(F)F [Example 262, 2-Chloro-5-{[(cyclopentylcarbonyl)amino]methyl}-N-{1-[4-methoxy-3-(trifluoromethyl)phenyl]-1H-indazol-4-yl}benzamide]	2 nM	99%	–	94%
CC(C)(C)C(=O)NCc1ccc(Cl)c(C(=O)Nc2cccc3c2cnn3C2CCCC2)c1 [Example 97, 2-Chloro-N-(1-cyclopentyl-1H-indazol-4-yl)-5-{[(2,2-dimethylpropanoyl)amino]methyl}benzamide]	5.3 nM	–	0.7 nM	–
O=C(Nc1cccc2c1cnn2-c1ccc(C(F)(F)F)cc1)c1cc(CNC(=O)C2(O)CC2)ccc1Cl [Example 27]	4.4 nM	–	10 nM	–
CC(C)(C)C(=O)NCc1ccc(Cl)c(C(=O)Nc2cccc3c2cnn3-c2ccc(CO)nc2)c1 [Example 75, 2-Chloro-5-{[(2,2-dimethylpropanoyl)amino]methyl}-N-{1-[6-(hydroxymethyl)pyridin-3-yl]-1H-indazol-4-yl}benzamide]	260 nM	–	71.1 nM	–
Cc1cc(-n2ncc3c(NC(=O)c4cc(CNC(=O)C(C)(C)C)ccc4Cl)cccc32)cc(C)n1 [Example 76, 2-Chloro-5-{[(2,2-dimethylpropanoyl)amino]methyl}-N-[1-(2,6-dimethylpyridin-4-yl)-1H-indazol-4-yl]benzamide hydrochloride]	5.2 nM	–	2.4 nM	–
COC(C)(C)c1ccc(-n2ncc3c(NC(=O)c4cc(CNC(=O)C(C)(C)C)ccc4Cl)cccc32)cn1 [Example 84, 2-Chloro-5-{[(2,2-dimethylpropanoyl)amino]methyl}-N-{1-[6-(2-methoxypropan-2-yl)pyridin-3-yl]-1H-Indazol-4-yl}benzamide hydrochloride]	4.9 nM	–	0.8 nM	–
CC(C)(C)CC(=O)NCc1ccc(Cl)c(C(=O)Nc2cccc3c2cnn3-c2ccc(OC(F)(F)F)cc2)c1 [Example 114, 2-Chloro-5-{[(3,3-dimethylbutanoyl)amino]methyl}-N-{1-[4-(trifluoromethoxy)phenyl]-1H-indazol-4-yl}benzamide]	1.9 nM	87%	–	–
CN(C)CC(=O)NCc1ccc(Cl)c(C(=O)Nc2cccc3c2cnn3-c2ccc(C(F)(F)F)cc2)c1 [Example 24, 2-Chloro-5-{[(N,N-dimethylglycyl)amino]methyl}-N-{1-[4-(trifluoromethyl)phenyl]-1H-indazol-4-yl}benzamide hydrochloride]	46.4 nM	–	57.1 nM	–
CC(C)(C)C(=O)NCc1ccc(Cl)c(C(=O)Nc2cccc3c2cnn3C2CCCCC2)c1 [Example 98, 2-Chloro-N-(1-cyclohexyl-1H-indazol-4-yl)-5-{[(2,2-dimethylpropanoyl)amino]methyl}benzamide]	1.6 nM	–	9 nM	–
O=C(Nc1cccc2c1cnn2-c1ccc(C(F)(F)F)cc1)c1cc(CNC(=O)C2CC2)ccc1Cl [Example 1, 2-Chloro-5-{[(cyclopropylcarbonyl)amino]methyl}-N-{1-[4-(trifluoromethyl)phenyl]-1H-indazol-4-yl}benzamide]	4.5 nM	–	1.5 nM	–
O=C(Nc1cccc2c1cnn2-c1ccc(C(F)(F)F)nc1)c1cc(CNC(=O)C2CC2)ccc1Cl [Example 12, 2-Chloro-5-{[(cyclopropylcarbonyl)amino]methyl}-N-{1-[6-(trifluoromethyl)pyridin-3-yl]-1H-indazol-4-yl}benzamide]	1.1 nM	–	2.7 nM	–
O=C(Nc1cccc2c1cnn2-c1ccc(C(F)(F)F)cc1)c1cc(CNC(=O)C2(C(F)(F)F)CC2)ccc1Cl [Example 26, 2-Chloro-5-[({[1-(trifluoromethyl)cyclopropyl]carbonyl}amino)methyl]-N-{1-[4-(trifluoromethyl)phenyl]-1H-indazol-4-yl}benzamide]	2.3 nM	–	1.6 nM	–
